{"source": "EPA's ToxValDB 9.5 (doi:10.2903/j.efsa.2014.3815)", "key": {"Poecilus cupreus": {"tested_on": "Poecilus cupreus", "test": "LR50; higher = less toxic", "details": "acute; mortality"}, "Landoltia sp.": {"tested_on": "Landoltia sp.", "details": "acute; duration: 14 days; frond number"}, "Pleurozium sp.": {"tested_on": "Pleurozium sp.", "details": "chronic/long-term; duration: 120 hours; growth"}, "Macromiidae": {"tested_on": "Macromiidae", "details": "acute; duration: 72 hours; biomass"}, "Canidae": {"tested_on": "Canidae", "details": "subchronic; duration: 90 days; oral; Dog Other; histopathology: nonneoplastic"}, "Lepomis macrochirus": {"tested_on": "Lepomis macrochirus", "details": "acute; duration: 96 hours; mortality"}, "Daphnia magna": {"tested_on": "Daphnia magna", "details": "chronic/long-term; duration: 21 days; reproduction"}, "Cyprinus carpio": {"tested_on": "Cyprinus carpio", "details": "acute; duration: 96 hours; mortality"}, "Oryctolagus sp.": {"tested_on": "Oryctolagus sp.", "details": "developmental; development"}, "Pimephales promelas": {"tested_on": "Pimephales promelas", "details": "chronic/long-term; duration: 37 days; growth"}, "Rattus norvegicus": {"tested_on": "Rattus norvegicus", "details": "for LD50: acute, mortality"}, "Apis mellifera": {"tested_on": "Apis mellifera", "details": "acute; duration: 48 hours; dermal; mortality"}, "Tagia sp.": {"tested_on": "Tagia sp.", "details": "acute; duration: 14 days; mortality"}}, "data": [{"smiles": "COc1nc(C)nc(NC(=O)NS(=O)(=O)c2ccccc2CCC(F)(F)F)n1", "note": "[Prosulfuron]", "values": [{"measurement": "LR50", "setting": "Poecilus cupreus", "value": "> 15", "unit": "g/ha"}, {"measurement": "NOEC", "setting": "Landoltia sp.", "value": 0.000827, "unit": "mg/L"}, {"measurement": "NOEC", "setting": "Pleurozium sp.", "value": 0.00278, "unit": "mg/L"}, {"measurement": "NOEC", "setting": "Macromiidae", "value": 0.831, "unit": "mg/L"}, {"measurement": "NOAEL", "setting": "Canidae", "value": 6, "unit": "mg/kg-day"}, {"measurement": "LC50", "setting": "Lepomis macrochirus", "value": "> 100", "unit": "µg/mL"}, {"measurement": "NOEC", "setting": "Daphnia magna", "value": 148, "unit": "mg/L"}, {"measurement": "LD50", "setting": "Anas platyrhynchos; acute, oral, unspecified, mortality", "value": 1300, "unit": "mg/kg"}, {"measurement": "NOEL", "setting": "Anas platyrhynchos; reproductive", "value": 2.95, "unit": "mg/kg-day"}, {"measurement": "LC50", "setting": "Cyprinus carpio", "value": "> 100", "unit": "µg/mL"}, {"measurement": "NOAEL", "setting": "Oryctolagus sp.", "value": 10, "unit": "mg/kg-day"}, {"measurement": "NOEC", "setting": "Pimephales promelas", "value": 150, "unit": "mg/L"}, {"measurement": "LC50", "setting": "Oncorhynchus mykiss; acute, duration: 96 hours, mortality", "value": "> 160", "unit": "µg/mL"}, {"measurement": "NOEC", "setting": "Oncorhynchus mykiss; chronic/long-term, duration: 21 days, growth", "value": 5.8, "unit": "mg/L"}, {"measurement": "LD50", "setting": "Rattus norvegicus; M/F", "value": 986, "unit": "mg/kg"}, {"measurement": "LD50", "setting": "Rattus norvegicus", "value": "> 755", "unit": "mg/kg"}, {"measurement": "NOAEL", "setting": "Rattus norvegicus; chronic", "value": 12, "unit": "mg/kg-day"}, {"measurement": "NOAEL", "setting": "Rattus norvegicus; chronic, duration: 18 months, histopathology: nonneoplastic", "value": 1.7, "unit": "mg/kg-day"}, {"measurement": "NOAEL", "setting": "Rattus norvegicus; subchronic, duration: 90 days", "value": 3, "unit": "mg/kg-day"}, {"measurement": "LD50", "setting": "Apis mellifera", "value": "> 100", "unit": "µg/piece"}, {"measurement": "LC50", "setting": "Tagia sp.", "value": "> 1000", "unit": "mg/kg"}]}]}
